Assay results as given in patent US20200253888A1, “USE OF BIOMARKERS ASSOCIATED WITH LINE-1” (THE ARIZONA BOARD OF REGENTS ON BEHALF OF THE UNIVERSITY OF …, priority 2016, published 2020).

Legend:
L1 = conditions: HeLa, HMEM, vSMC and mK4 cell lines; previously shown (ref. 33); cited from earlier work
[1] = tested on: phospho-Smad2, E-Cadherin, N-Cadherin, vimentin; test: Activation of the TGF-β1 signaling pathway by B[a]P in HepG2 cells (immunoblotting); format: cell-based, human; conditions: data not shown
Protocol: FIG. 4 is experimental results showing B[a]P induces the activation of the TGF-β1 signaling pathway in HepG2 cells. Cells were stimulated for different periods of times by replacing cell media for supplemented fresh media containing 1.5 μM B[a]P or an equivalent DMSO concentration (0.5%). Whole cell lysates were analyzed by immunoblotting for phospho-Smad2, total Smad2, E-Cadherin, N-Cadherin, and GAPDH (loading control).
(§1) Cell culture and treatments: HepG2 hepatocellular carcinoma cell line was purchased from the American Type Culture Collection (ATCC). Cells were grown in RPMI medium supplemented with 10% fetal bovine serum (FBS, Thermo Fisher Scientific, Grand Island, N.Y.) supplemented with 62.5 μg/mL penicillin and 100 μg/mL streptomycin (Thermo Fisher Scientific) in a humidified incubator at 37° C. with 5% CO2. HepG2 cells were pleated on day before treatment. Cells were between 40-50% confluent at the treatment time. […] All protein concentrations were determined using the bicinchoninic acid assay (Thermo Fisher Scientific).
Immunoblotting: Total cell lysates were resolved by SDS-Tris PAGE and then electrotransferred onto polyvinylidine fluoride membranes (Thermo Fisher Scientific) in Tris-glycine buffer containing 20% methanol. Proteins were detected by immunoblotting. […]

AhR = AhR knockdown by siRNA in HepG2 cells (immunoblot); format: cell-based, human; conditions: HepG2, siRNA transfection
Protocol: FIG. 3 is experimental results showing B[a]P induces the TG-β1 mRNA expression through of its receptor AhR in HepG2 cells. A) Cell were treated with 1.5 μM B[a]P or an equivalent DMSO concentration (0.5%) for different periods of times. B) Cells were transfected without siRNA (mock), with AhR target-specific siRNAs, or with a control siRNA (scramble), then treated with 1.5 μM B[a]P or DMSO for 48 h. Total RNA was isolated, and 1 μg of RNA was subjected to cDNA synthesis. Samples were analyzed via RT-PCR using human specific primers for TGF-μ1 and GAPDH. C) Some transfected cells were lysed and the whole cell lysates was analyzed by immunoblotting for AhR or GAPDH antibodies (loading control) to confirm target knockdown.
Immunoblotting: Total cell lysates were resolved by SDS-Tris PAGE and then electrotransferred onto polyvinylidine fluoride membranes (Thermo Fisher Scientific) in Tris-glycine buffer containing 20% methanol. Proteins were detected by immunoblotting. Where indicated, membranes were stripped of bound antibodies using 62.5 mmol/L Tris-HCl (pH 6.7), 100 mmol/L 2-mercaptoethanol, and 2% SDS for 30 minutes at 60° C. and then reprobed as described in figure legends.
(§2) RNA interference: Small interfering RNA (siRNA) duplexes sequences were chemically synthesized and annealed by Thermo Fisher Scientific. […]

L1 mRNA (ORF1 and ORF2) = test: B[a]P-induced L1 mRNA expression after siRNA transfection in HepG2 cells (qRT-PCR); format: cell-based, human
Protocol: FIG. 5 is experimental results showing B[a]P-mediated L1 mRNA expression requires TGFR1, Smad2 and smad3 in HepG2 cells. Cells were transfected without siRNA (mock), with target-specific siRNAs for Smad2, Smad3, TGFBR1, or with a control siRNA (scramble), then treated with 1.5 μM B[a]P or DMSO for 48 h. Total RNA was isolated, and 1 μg of RNA was subjected to cDNA synthesis. Samples were analyzed via RT-PCR using human specific primers for L1 (ORF1 and ORF2) and GAPDH. C) Some transfected cells were lysed and the whole cell lysates was analyzed by immunoblotting for TGFBR1, Smad2/3 or GAPDH antibodies (loading control) to confirm target knockdown.
RT-PCR: Total RNA was isolated from cells using the RNeasy Plus Kit (Qiagen) and 2 μg RNA was digested with TurboDNase-I (Thermo Fisher Scientific). A total DNAse digested RNA (1 μg) was employed for cDNA synthesis using high-capacity cDNA reverse transcription Kit (Thermo Fisher Scientific). The resulting cDNAs (50 ng) were used as templates for qRT-PCR to analyze the mRNA expression using Power SYBR® Green PCR Master Mix and primers for L1-ORF-1, L1-ORF-2, TGF-β1 and GAPDH. The fold changes were determined by comparing the ACT value of each product normalized to GAPDH as an internal control.
as §2

[2] = tested on: L1 mRNAs (ORF-1 and ORF-2); test: TGF-β1-induced L1 mRNA expression in HepG2 cells (qRT-PCR); format: cell-based, human
Protocol: FIG. 1 is experimental results showing TGF-β1 induces the L1 mRNA expression in HepG2 cells. HepG2 were stimulated for different times by adding serum-free media with or without (untreated) 10 ng/ml TGF-β1. Total RNA was isolated, and 1 μg of RNA was subjected to cDNA synthesis. Samples were analyzed via RT-PCR using specific primers for human L1 (ORF-1 and ORF-2) and GAPDH. Expression relative to untreated cells.
as §1
RT-PCR: Total RNA was isolated from cells using the RNeasy Plus Kit (Qiagen) and 2 μg RNA was digested with TurboDNase-I (Thermo Fisher Scientific). […] The fold changes were determined by comparing the ACT value of each product normalized to GAPDH as an internal control. […]

[3] = tested on: L1 proteins (ORF1p and ORF2p); test: TGF-β1-mediated L1 expression in BEAS-2B lung cells with or without juglone (immunoblotting); format: cell-based; conditions: BEAS-2B cells, 10 ng/ml TGF-β1, immunoblotting
Protocol: In the experiments, non-malignant BEAS-2B lung cells were untreated or treated with 10 ng/ml TGF-β1 and co-treated with 1 μM juglone or ethanol and whole lyses were analyzed by immunoblotting for L1 proteins (ORF1p and ORF2p), vimentin, DNMT1 and GAPDH (loading control).

Compound: c1ccc2c(c1)cc1ccc3cccc4ccc2c1c34 [B[a]P, Benzo[a]pyrene]
- transcriptional expression of L1 (L1): reactivates transcriptional expression of L1
- expression of vimentin [1]: not induced

Compound: AhR siRNA: siRNA duplex for AhR (ID#s1200), SEQ ID NO: 9 and 10 (chain 1 CGGAUGAAAUCCUGACGUATT; chain 2 UACGUCAGGAUUUCAUCAGTT; chemistry not given here)
- reduction in AhR levels compared with controls (AhR): > 90%

Compound: Smad2 siRNA: siRNA duplex for Smad2 (ID#115715), SEQ ID NO: 13 and 14 (chain 1 GCUUCUCUGAACAAACCAGTT; chain 2 CUGGUUUGUUCAGAGAAGCTG; chemistry not given here)
- baseline L1 mRNA expression after knockdown (L1 mRNA (ORF1 and ORF2)): slight reduction

Compound: Smad3 siRNA: siRNA duplex for Smad3 (ID#107877), SEQ ID NO: 15 and 16 (chain 1 GGCCCAGUGCAUAUGCAAUTT; chain 2 AUUGCAUAUGCACUGGGCCTC; chemistry not given here)
- baseline L1 mRNA expression after knockdown (L1 mRNA (ORF1 and ORF2)): slight reduction

Compound: TGF-β1: Recombinant human TGF-β1 purchased from R&D Systems
- time of maximal peak induction of L1 mRNAs ([2]; HepG2, 10 ng/ml TGF-β1, time course 4 h-24 h): 8 h
- expression levels of L-1 mRNAs (ORF-1 and ORF-2) ([2]; HepG2, 10 ng/ml TGF-β1 in serum-free media, after 8 h to 24 h treatment, relative to untreated cells): induced an evident increase
- expression of L1 [3]: induces the expression of L1
